Data taken from US6723897B2, “Methods for controlling gibberellin levels” (Monsanto Technology, LLC, priority 1998, dated 2004).

Assays:
[1] = Particulate material present in solutions after mixing; type: physicochemical; conditions: for Particulate material present, 100X Diln w/water: 0.25 mg/ml compound in water; for solubility in water during imbibition: 0.25 mg/ml treatment solutions
Description: Each of the compounds noted above is weighed to the nearest 0.1 mg in a pre-tarred 1.5-ml polypropylene vial with a screw-top lid. Absolute ethanol is added to the weighed powder to prepare a 25 mg/ml solution. Solutions are thoroughly mixed using a vortex mixer. A stainless steel spatula is used to crush any particulate material remaining after extensive mixing. Vials are left overnight at room temperature, and then remixed to form the concentrated ethanol stock solutions. The presence of undissolved material is noted throughout this procedure.

[2] = system: constitutively GA-deficient transgenic dwarf soybean line 719; assay: Experiment I greenhouse test, seed imbibition, GA-deficient soybean; type: in vivo, Glycine max; design: Observation on Transgenic Line 719: key: −1: treated plants are shorter as compared to untreated plants; 0: treated plants had the same stature as untreated plants; 1: treated plants are slightly elongated as compared to untreated plants; 2: treated plants are moderately elongated as compared to untreated plants; 3: treated plants are highly elongated as compared to untreated plants; 4: treated plants are extremely elongated as compared to untreated plants; conditions: 0.25 mg/ml; for effect in both the constitutive transgenic dwarf and wild-type soybean lines: imbibition, lines 719 and A3237; for Observation on Transgenic Line 719: seeds imbibed 5 hours
From the text: Seeds are covered with 0.5″ of vermiculite.

[3] = system: wild-type soybean line A3237; assay: Experiment I greenhouse test, seed imbibition, wild-type soybean; conditions: 0.25 mg/ml; seeds imbibed 5 hours
Description: Compounds are first prepared as 25 mg/ml solutions in ethanol as described above, and then diluted into 40 ml of water to prepare the final 0.25 mg/ml treatment solutions. Visual observations on solubilities (milky, clear, etc.) of the treatment solutions are noted. The treatment solutions are divided into two 20 ml portions, each in 50 ml plastic centrifuge tubes. In addition to treating seeds with solutions containing the test compounds, untreated seeds and seeds imbibed in ethanol-water solution (300 μl ethanol in 30 mls of water) are also included in this experiment as controls. […]
(§1) After imbibition, seeds are removed from the test tubes, placed on wax paper to dry, and planted in bread pans containing farm soil amended with fertilizer at 20 seeds/pan. Seeds are covered with 0.5″ of vermiculite. Pans are transferred to the greenhouse, which had day/night temperatures of 86/68° F. (30/20° C.), and subirrigated. Illumination is at a light intensity of 300-400 μmolm^−2s^−1 photosynthetic photon flux; 16 hours light/8 hours dark. Subsequent waterings are also through sub-irrigation until the test is terminated three weeks later. Observations included the number of dwarf, intermediate, and tall plants; plant height; uniformity of rescue; and any visual effects.

[4] = system: constitutively GA-deficient transgenic dwarf soybeans (line 719); assay: Summary of first two greenhouse experiments, rescue of GA-deficient soybeans; type: in vivo, Glycine max; design: key: +: transgenic soybeans are rescued; 0: transgenic soybeans are not rescued; conditions: 0.25 mg/ml solution (ethanol-water)
Description: (§2) Compounds are first prepared as 25 mg/ml solutions in ethanol as described above, and then diluted into 40 ml of water to prepare the final 0.25 mg/ml treatment solutions. Visual observations on solubilities (milky, clear, etc.) of the treatment solutions are noted. The treatment solutions are divided into two 20 ml portions, each in 50 ml plastic centrifuge tubes. In addition to treating seeds with solutions containing the test compounds, untreated seeds and seeds imbibed in ethanol-water solution (300 μl ethanol in 30 mls of water) are also included in this experiment as controls. In the latter case, 20 seeds are imbibed in 30 mls of solution for six hours.
as §1, with “Two soybean varieties are selected for testing: constitutively GA-deficient transgenic dwarf soybean line 719 (plasmid pMON29801, constitutive FMV promoter/asCPScc; which is a mixture of 719−2 and 719+17), and A3237, the wild-type parent material. […] After” for “After”
(§3) All compounds are tested at final concentrations of 0.25, 0.025, and 0.0025 mg/ml except for GA9, which is tested at 0.125, 0.0125, and 0.00125 mg/ml. (The compounds are tested in Experiment I at only one concentration, i.e., 0.25 mg/ml). Test tubes contained […] of ethanol solution per tube. Final volumes are made up to 30 ml with deionized water. After shaking, the treatment solutions (15 ml each) are transferred to each of two 50 ml test tubes. Treatments 1 to 27 are performed on wild-type line A3237; treatments 28 to 54 are performed on constitutively GA-deficient transgenic dwarf soybean line 719 (a mixture of 719−2 and 719+17). Twenty seeds are used in each treatment. Dry seed, ethanol/water-imbibed seed (1% ethanol in water, v/v), and water-imbibed seeds are included as controls. Seeds are imbibed for 6 hours in the test solutions, then planted in bread pans containing Metromix 350 (The Scotts Company, Marysville, Ohio), and covered with 0.5″ Metro-mix. Covered pans are transferred to the greenhouse and subirrigated. Illumination is at a light intensity of 300-400 μmolm^−2s^−1 photosynthetic photon flux; 16 hours light/8 hours dark. Subsequent waterings are also through sub-irrigation until the test is terminated three weeks later. Observations included the number of dwarf, intermediate, and tall plants; plant height; uniformity of rescue; and any visual effects. Digital photographs are also taken.

[5] = system: GA-deficient transgenic soybean line 719 (R5); assay: Hilum treatment of soybean seeds, seedling growth and development, GA-deficient soybean; type: in vivo, Glycine max; design: key to Emergence timing / Hypocotyl length (6 DAP) / 1st internode length (12 DAP) / 3rd internode length (20 DAP) / 2nd internode length (12 DAP): pos: emergence faster/stem segment longer than controls; 0: emergence timing/stem segment length similar to controls; neg: emergence slower/stem segment shorter than controls; conditions: for 1st internode length (12 DAP) / Emergence timing / Hypocotyl length (6 DAP): single rate per compound 8.3-16.5 μg/seed
Description: (§4) In the previous experiments, the effect of various GA compounds on transgenic, GA-deficient and wild-type soybean is evaluated by treating seeds with these compounds via imbibition. Several of these compounds are not completely soluble in water, which limited the interpretation of their utility in rescuing GA-deficient dwarf plants. The purpose of this experiment is to reevaluate selected, previously tested compounds, and additional compounds, by introducing them to the seed via the hilum. As shown by the results presented below, direct application of small quantities of GA compounds dissolved in an organic solvent to the hilum is an effective method of treating soybean seeds. As in the previously described experiments, comparison is made between activity on GA-deficient soybean seedlings and normal (wild-type) seedlings. […] soybean seeds are supplied by Asgrow Seed Company (Des Moines, Iowa). Seed of GA-deficient transgenic soybean line 719 is created by transformation of […] soybean with pMON29801 (FMV/antisense CPScc). Fifth generation seed (R5) is used for these experiments. […] When multiple droplets are applied, each 1 μl droplet is allowed to dry before subsequent droplets are added. Ethanol minus compound is used a treatment control. […] (29° C.) and 75° F. (24° C.), respectively. Emergence timing is measured by counting the number of emerged seedlings at different times after planting. Emergence is defined as the presence of cotyledons raised to soil level or above. […] To assess the ability of a seed treatment to deliver biological activity beyond the first internode, measurements are taken on selected treatments after prolonged growth and development.

wild-type A3237 soybean = assay: Hilum treatment of soybean seeds, seedling growth and development, wild-type soybean; type: in vivo, Glycine max; design: key to Emergence timing / Hypocotyl length (6 DAP) / 1st internode length (12 DAP) / 3rd internode length (20 DAP): pos: emergence faster/stem segment longer than controls; 0: emergence timing/stem segment length similar to controls; neg: emergence slower/stem segment shorter than controls; conditions: for 1st internode length (12 DAP) / Emergence timing / Hypocotyl length (6 DAP): single rate per compound 8.3-16.5 μg/seed
Description: as §4

[6] = system: GA-deficient (Line 719, R5) soybeans; assay: Hilum treatment with GA15, GA19, GA24, GA44, hypocotyl length, GA-deficient soybean; type: in vivo, Glycine max; conditions: 10 μg/seed, 5 DAP
From the text: Transgenic seeds are fifth generation (R5) line 719 seeds.

A3237 soybean = assay: Stature of soybean plants with ancymidol soil drench; type: in vivo, Glycine max
Description: R1 lines are also evaluated for stature reduction, a key indicator of GA-deficiency in soybean. R1 seeds are grown as described above. Plant height is routinely measured at approximately one week after planting. Four lines (696, 719, 720 and 724) are identified that had overall stature reduction relative to the control (A3237) line and the control line plus ancymidol (10 mg/L), an inhibitor of GA (Table 3). As these are segregating from R1 seeds, the distribution stature of the plants is evaluated. Three lines (719, 720 and 724) have a population of strong dwarf soybean plants (<25% the height of the average control plant). The segregation ratio of R1 pMON29801 (FMV/asCPScc) (FIG. 7) soybean plants is checked by phenotype (stature) and for the expression of CP4 5-enolpyruvylshikimate-3-phosphate synthase by ELISA (Rogan et al., J. Food Control, in Press (1998)). The results for both of these analyses are fairly consistent (Table 4): Line 696 segregated at about 1:3, line 719 at about 1:2, line 720 at about 2:1 and line 724 at about 3:1. Thus, only line 724 is what could be considered normal Mendelian segregation.
In soybean, GAs increase through mid-seed development, and then decline as the seed matures (Birnberg et al. (1986) Plant Physiol. 82:241-246). This trend is similar to that observed in other legumes. […] This is supported by the following observations (data not shown). […] This is well after germination and axis elongation have begun. Both of these observations support the hypothesis that soybean seed germination and early axis elongation are not dependent on de novo gibberellin biosynthesis.

[7] = system: wild-type soybeans (line A3237); assay: Summary of first two greenhouse experiments, elongation of wild-type soybeans; conditions: 0.25 mg/ml solution (ethanol-water)
Description: as §2
as §1, with “Two soybean varieties are selected for testing: constitutively GA-deficient transgenic dwarf soybean line 719 (plasmid pMON29801, constitutive FMV promoter/asCPScc; which is a mixture of 719−2 and 719+17), and A3237, the wild-type parent material. […] After” for “After”
as §3

[8] = L719, hilum treatment, rate response

In the case of `C=C1C[C@]23C[C@H]1CC[C@H]2[C@]1(C)CCC[C@@](C)(C(=O)O)[C@H]1[C@@H]3C=O` [GA12-aldehyde], the “Particulate material present, 100X Diln w/water” value [1] is reported as “YES”, the “solubility in water during imbibition” value [1] is reported as “less soluble in water during imbibition” and the “effect in both the constitutive transgenic dwarf and wild-type soybean lines” value [2] is reported as “no substantial activity”. For the same molecule, the “Observation on Transgenic Line 719” value [2] was 0, the “Observation on Wild-Type Line A3237” value [3] was 0 and the “Rescue of GA-deficient soybeans” value [4] was 0. The “Lowest rate where biological activity is observed, 1st internode length (10 DAP)” value [5, 8] was >100 μg/seed, the “Lowest rate where biological activity is observed, emergence timing” value [5, 8] was 1 μg/seed and the “Lowest rate where biological activity is observed, hypocotyl length (5 DAP)” value [5, 8] was 1 μg/seed. For the same molecule, the “1st internode length (12 DAP)” value ([5]; L719, hilum treatment) was 0, the Emergence timing ([5]; L719, hilum treatment) was “pos” and the “Hypocotyl length (6 DAP)” value ([5]; L719, hilum treatment) was “pos”. For the same molecule, the “activity on line 719 in terms of emergence timing and hypocotyl length” value ([5]; single rate, hilum, concentration that does not affect normal plant tissue) was “biologically active”, the “Lowest rate where biological activity is observed, 1st internode length (10 DAP)” value (wild-type A3237 soybean; rate response) was >100 μg/seed and the “Lowest rate where biological activity is observed, emergence timing” value (wild-type A3237 soybean; rate response) was >100 μg/seed. The “Lowest rate where biological activity is observed, hypocotyl length (5 DAP)” value (wild-type A3237 soybean; rate response) was >100 μg/seed, the “1st internode length (12 DAP)” value (wild-type A3237 soybean) was 0 and the Emergence timing (wild-type A3237 soybean) was 0. For the same molecule, the “Hypocotyl length (6 DAP)” value (wild-type A3237 soybean) was 0.

For `C=C1C[C@]23C[C@@]1(O)CC[C@H]2[C@]1(C=O)CCC[C@@](C)(C(=O)O)[C@H]1[C@@H]3C(=O)O` [GA19], the “hypocotyl height of GA-deficient (Line 719) soybeans (FIG. 41)” value (shortened to “hypocotyl height of GA-deficient”) [6] was “restored normal or greater hypocotyl height”.

In the case of `C=C1C[C@]23C[C@H]1CC[C@H]2[C@]1(C=O)CCC[C@@](C)(C(=O)O)[C@H]1[C@@H]3C(=O)O` [GA24], the “hypocotyl height of GA-deficient” value [6] is reported as “restored normal or greater hypocotyl height”.

In the case of `C=C1C[C@]23C[C@@]1(O)CC[C@H]2[C@@]12CCC[C@@](C)(C(=O)OC1)[C@H]2[C@@H]3C(=O)O` [GA44], the “hypocotyl height of GA-deficient” value [6] is reported as “restored normal or greater hypocotyl height”.

With `COc1ccc(C(O)(c2cncnc2)C2CC2)cc1` (centres unmarked) [ancymidol] the “Height (% of control)” value (A3237 soybean; 7 DAP, ancymidol 10 mg/L) was 14 % of control, the “Frequency of heights relative to A3237 control (%), 0-25%” value (A3237 soybean; ancymidol soil drench 10 mg/L) was 100% and the “Frequency of heights relative to A3237 control (%), 25-50%” value (A3237 soybean; ancymidol soil drench 10 mg/L) was 0%. For the same molecule, the “Frequency of heights relative to A3237 control (%), 50-75%” value (A3237 soybean; ancymidol soil drench 10 mg/L) was 0%, the “Frequency of heights relative to A3237 control (%), 75-100%” value (A3237 soybean; ancymidol soil drench 10 mg/L) was 0% and the soybean axis elongation (A3237 soybean; first one to two days of growth, data not shown) was “does not reduce soybean axis elongation”.

In the case of `C=C1C[C@@]23CC[C@@H]4C(C)(C)CCC[C@@]4(C)[C@@H]2CC[C@@H]1C3` [kaurene], the “Particulate material present, 100X Diln w/water” value [1] is reported as “YES”, the “solubility in water during imbibition” value [1] is reported as “less soluble in water during imbibition” and the “Particulate material present, Initial Mixing” value ([1]; 25 mg/ml in absolute ethanol) is reported as “YES”. For the same molecule, the “Particulate material present, O/N Incubation” value ([1]; 25 mg/ml in ethanol, overnight at room temperature, remixed) was “YES”, the “effect in both the constitutive transgenic dwarf and wild-type soybean lines” value [2] was “no substantial activity” and the “Observation on Transgenic Line 719” value [2] was 0. The “Observation on Wild-Type Line A3237” value [3] was 0, the “Rescue of GA-deficient soybeans” value [4] was 0 and the “Elongation of wild-type soybeans” value [7] was 0. The “1st internode length (12 DAP)” value ([5]; L719, hilum treatment) was 0, the Emergence timing ([5]; L719, hilum treatment) was “pos” and the “Hypocotyl length (6 DAP)” value ([5]; L719, hilum treatment) was 0. For the same molecule, the “1st internode length (12 DAP)” value (wild-type A3237 soybean) was 0, the Emergence timing (wild-type A3237 soybean) was 0 and the “Hypocotyl length (6 DAP)” value (wild-type A3237 soybean) was 0.

In the case of GA15, the “hypocotyl height of GA-deficient” value [6] is reported as “restored normal or greater hypocotyl height”.
